Reference: patent US20090258824A1, “Amyloid beta receptor and uses thereof” (priority 2005, published 2009)

Tested on: cultured cortical neurons
Test: Calcium imaging (Fluo-4) in cultured cortical neurons
Format: cell-based, rat (Sprague Dawley)
Details: antagonist co-applied with Aβ*56
Procedure: Cultured neurons. Cultures of cortical neurons from P1 Sprague Dawley rat pups were prepared according to previously published protocols (Dubinsky, J Neurosci 13, 623-631 (1993)). Dissections of cortical mantels excluded meninges, hippocampus, septal regions, and basal ganglia. […]
Size-exclusion chromatography (SEC). […] Fractions of 500 μl of eluate in 50 mM Ammonium Acetate, pH 8.5, were diluted 1:100 or 1:750 in neurophysiology experiments, or were concentrated using a vacuum system (VacuFuge™, Brinkmann-Eppendorf) and analyzed by silver staining.
Calcium imaging. […] Calcium indicator dye fluorescence was monitored with 488 nanometer (nm) excitation, a 500 nm long-pass barrier filter and confocal microscopy (Odyssey scanner, Noran, Middleton, Wis.). […] To quantify neuronal Ca^2+ responses, Ca^2+ fluorescence was measured from single neurons or clusters of neurons. Baseline fluorescence was normalized to one and the area between the curve and the baseline calculated using Origin software analysis routines (OriginLab Corporation, Northampton, Mass.).

O=C(O)C1CN(CCCP(=O)(O)O)CCN1 (racemic) [CPP, (+/−)-3-(2-carboxypiperazin-4-yl)-propyl-1-phosphonic acid]
effect on the Aβ*56-induced increase in Ca2+ signal: completely abolished

CCC(N)(C(=O)O)c1ccc(C(=O)O)cc1 (racemic) [E4CPG, (RS)-α-Ethyl-4-carboxyphenylglycine]
effect on the Aβ*56-induced increase in Ca2+ signal: failed to block
